# Entries after “also recorded” stand apart in the source; their conditions may differ.
# Legend:
# Type in all cases: in vivo, mouse
# C57BL/6 mice [1] = experiment: Denervation-induced skeletal muscle atrophy model
# mice = experiment: Immobilization-induced skeletal muscle atrophy model (stapled tibialis anterior); settings: i.p. twice daily
# Experimental: To test this, a mouse model of immobilization-induced skeletal muscle atrophy was used: mice were administered vehicle (corn oil) or varying doses of ursolic acid (positive control) or betulinic acid via intraperitoneal injection twice a day for two days. One tibialis anterior (TA) muscle was immobilized with a surgical staple, leaving the contralateral mobile TA as an intra-subject control. The vehicle or the same dose of ursolic acid or betulinic acid was continuously administered via i.p. injection twice daily for six days before comparing weights of the immobile and mobile TAs.
# To test this, mice were administered vehicle (corn oil), ursolic acid (200 mg/kg), naringenin (200 mg/kg), or the combination of ursolic acid and naringenin (each at 200 mg/kg) via i.p injection twice a day for two days. One tibialis anterior (TA) muscle was immobilized with a surgical staple, leaving the contralateral mobile TA as an intrasubject control. Vehicle or the same doses of ursolic acid and/or naringenin was continuously administered via i.p. injection twice daily for six days before comparing weights of the immobile and mobile TAs.
# To test this, mice were administered vehicle (corn oil) or tomatidine (50, 100 or 200 mg/kg) via i.p injection twice a day for two days. One tibialis anterior (TA) muscle was immobilized with a surgical staple, leaving the contralateral mobile TA as an intrasubject control. Vehicle or the same doses of tomatidine was administered via i.p. injection twice daily for six days before comparing weights of the immobile and mobile TAs. […] The same protocol was used to compare the effects of vehicle (corn oil) and tomatidine (5, 15 or 50 mg/kg) on immobilization-induced muscle atrophy.
# [2] = tested on: gastrocnemius muscle mRNA; experiment: Exon expression arrays of gastrocnemius muscle mRNA in mice fed ursolic acid; settings: 0.27% ursolic acid in chow 5 weeks
# Experimental: Following harvest, skeletal muscle samples were immediately placed in RNAlater (Ambion) and stored at −80° C. until further use. […] These raw microarray data from humans and mice have been deposited in NCBI's Gene Expression Omnibus (“GEO”) and are accessible through GEO Series accession numbers GSE28016 and GSE28017, respectively. Exon array studies of the effects of fasting on mouse skeletal muscle, and the effects of spinal cord injury on human skeletal muscle were described previously (Adams C M, et al. (2011) Muscle & nerve 43(1):65-75; Ebert S M, et al. (2010) Molecular Endocrinology 24(4):790-799).
# To test this hypothesis, an unbiased approach was used, specifically exon expression arrays were used to analyze gastrocnemius muscle mRNA expression in mice that had been fed diets lacking or containing ursolic acid for 5 weeks. […] Each array assessed pooled gastrocnemius RNA from two mice. Stringent criteria were used for ursolic acid-induced effects on mRNA levels (P<0.005), and mRNAs with low levels of expression were disregarded (i.e. only transcripts that were increased to a mean log2 hybridization signal ≥8, or repressed from a mean log2 hybridization signal ≥8 were included).
# C57BL/6 mice [3] = experiment: High fat diet model of obesity and metabolic syndrome with ursolic acid; settings: high fat diet containing 0.27% ursolic acid
# Experimental: To test this, C57BL/6 mice were given ad libitum access to a high fat diet (HFD; Teklad TD.93075; 55% calories from fat) lacking or containing 0.27% ursolic acid. After 7 weeks, mice from each group were studied for three days in comprehensive lab animal monitoring systems (“CLAMS”; Columbus Instruments). In the CLAMS, mice were maintained on the same diet they had been eating since the beginning of the experiment. Following CLAMS, tissues were harvested for analysis.
# The study was carried out as follows: C57BL/6 mice were given ad libitum access to a high fat diet (“HFD”; Teklad TD.93075; 55% calories from fat) lacking or containing 0.27% ursolic acid. After 5 weeks, mice were fasted for 16 h before blood glucose was measured via the tail vein (FIG. 15A). Normal fasting blood glucose: ≤100 mg/dl. (B-I) After 7 weeks, liver and plasma were harvested for analysis (FIGS. 15B-15H).
structure (smiles),measurement,setting,value
C[C@H]1[C@H](C)CC[C@]2(C(=O)O)CC[C@]3(C)C(=CC[C@@H]4[C@@]5(C)CC[C@H](O)C(C)(C)[C@@H]5CC[C@]43C)[C@H]12 [ursolic acid],denervated skeletal muscle fiber diameter (gastrocnemius and TA),C57BL/6 mice [1]; ursolic acid 200 mg/kg i.p. twice daily 7 days,increase in the size of denervated skeletal muscle fiber diameter
same,denervation-induced muscle loss (denervated/innervated lower hindlimb muscle weight),C57BL/6 mice [1]; ursolic acid 200 mg/kg i.p. twice daily 7 days after sciatic nerve transsection,significantly decreased denervation-induced muscle loss
same,dose of maximal inhibition of immobilization-induced muscle atrophy,mice,200 mg/kg
same,immobilization-induced muscle atrophy (weights of immobile vs mobile TA),"mice; 2 days before and 6 days after immobilization, ursolic acid and betulinic acid varying doses, naringenin 200 mg/kg, tomatidine 5-200 mg/kg",reduced muscle atrophy in a dose-dependent manner; also recorded: reduces immobilization-induced skeletal muscle atrophy
same,"levels of mRNAs encoding myostatin, twist or myogenin",[2]; gastrocnemius,did not alter levels of mRNAs encoding myostatin
same,levels of IGF1 exons (exons 2-6),[2]; gastrocnemius exon arrays,increased levels of all measured IGF1 exons
same,"2310016M24Rik mRNA Change (mean log2, ursolic acid diet minus control diet)","[2]; mice, gastrocnemius",0.12 log2
same,"2610507B11Rik mRNA Change (mean log2, ursolic acid diet minus control diet)","[2]; mice, gastrocnemius",0.14 log2
same,"Acadm mRNA Change (mean log2, ursolic acid diet minus control diet)","[2]; mice, gastrocnemius",−0.11 log2
same,"Adprhl1 mRNA Change (mean log2, ursolic acid diet minus control diet)","[2]; mice, gastrocnemius",−0.26 log2
same,"Ahsa2 mRNA Change (mean log2, ursolic acid diet minus control diet)","[2]; mice, gastrocnemius",0.18 log2
same,"Arfgap2 mRNA Change (mean log2, ursolic acid diet minus control diet)","[2]; mice, gastrocnemius",0.30 log2
same,"Asb5 mRNA Change (mean log2, ursolic acid diet minus control diet)","[2]; mice, gastrocnemius",0.21 log2
same,"BC004004 mRNA Change (mean log2, ursolic acid diet minus control diet)","[2]; mice, gastrocnemius",0.06 log2
same,"C3 mRNA Change (mean log2, ursolic acid diet minus control diet)","[2]; mice, gastrocnemius",0.70 log2
same,"Cacna1s mRNA Change (mean log2, ursolic acid diet minus control diet)","[2]; mice, gastrocnemius",−0.22 log2
same,"Cd24a mRNA Change (mean log2, ursolic acid diet minus control diet)","[2]; mice, gastrocnemius",0.28 log2
same,"Ctsb mRNA Change (mean log2, ursolic acid diet minus control diet)","[2]; mice, gastrocnemius",0.16 log2
same,"D0H4S114 mRNA Change (mean log2, ursolic acid diet minus control diet)","[2]; mice, gastrocnemius",0.15 log2
same,"D4Wsu53e mRNA Change (mean log2, ursolic acid diet minus control diet)","[2]; mice, gastrocnemius",−0.18 log2
same,"Ddit4l mRNA Change (mean log2, ursolic acid diet minus control diet)","[2]; mice, gastrocnemius",−0.32 log2
same,"Eef1e1 mRNA Change (mean log2, ursolic acid diet minus control diet)","[2]; mice, gastrocnemius",0.15 log2
same,"Eif4g3 mRNA Change (mean log2, ursolic acid diet minus control diet)","[2]; mice, gastrocnemius",−0.12 log2
same,"Fbp2 mRNA Change (mean log2, ursolic acid diet minus control diet)","[2]; mice, gastrocnemius",0.37 log2
same,"Fbxo32 (Atrogin-1) mRNA Change (mean log2, ursolic acid diet minus control diet)","[2]; mice, gastrocnemius",−0.35 log2
same,"Fhl3 mRNA Change (mean log2, ursolic acid diet minus control diet)","[2]; mice, gastrocnemius",0.31 log2
same,"Fmo1 mRNA Change (mean log2, ursolic acid diet minus control diet)","[2]; mice, gastrocnemius",0.47 log2
same,"Foxn3 mRNA Change (mean log2, ursolic acid diet minus control diet)","[2]; mice, gastrocnemius",−0.09 log2
same,"Gfm1 mRNA Change (mean log2, ursolic acid diet minus control diet)","[2]; mice, gastrocnemius",0.12 log2
same,"Ggct mRNA Change (mean log2, ursolic acid diet minus control diet)","[2]; mice, gastrocnemius",0.24 log2
same,"Ghitm mRNA Change (mean log2, ursolic acid diet minus control diet)","[2]; mice, gastrocnemius",0.05 log2
same,"Golga4 mRNA Change (mean log2, ursolic acid diet minus control diet)","[2]; mice, gastrocnemius",−0.14 log2
same,"Gpx1 mRNA Change (mean log2, ursolic acid diet minus control diet)","[2]; mice, gastrocnemius",0.36 log2
same,"H19 mRNA Change (mean log2, ursolic acid diet minus control diet)","[2]; mice, gastrocnemius",0.39 log2
same,"Hipk2 mRNA Change (mean log2, ursolic acid diet minus control diet)","[2]; mice, gastrocnemius",0.38 log2
same,"Hk2 mRNA Change (mean log2, ursolic acid diet minus control diet)","[2]; mice, gastrocnemius",0.26 log2
same,"Hspb8 mRNA Change (mean log2, ursolic acid diet minus control diet)","[2]; mice, gastrocnemius",0.32 log2
same,"Hsph1 mRNA Change (mean log2, ursolic acid diet minus control diet)","[2]; mice, gastrocnemius",0.30 log2
same,"Igf1 mRNA Change (mean log2, ursolic acid diet minus control diet)","[2]; mice, gastrocnemius",0.56 log2
same,"Klhl31 mRNA Change (mean log2, ursolic acid diet minus control diet)","[2]; mice, gastrocnemius",−0.09 log2
same,"Krr1 mRNA Change (mean log2, ursolic acid diet minus control diet)","[2]; mice, gastrocnemius",0.15 log2
same,"Lsm14a mRNA Change (mean log2, ursolic acid diet minus control diet)","[2]; mice, gastrocnemius",0.18 log2
same,"Lum mRNA Change (mean log2, ursolic acid diet minus control diet)","[2]; mice, gastrocnemius",0.61 log2
same,"Lyz2 mRNA Change (mean log2, ursolic acid diet minus control diet)","[2]; mice, gastrocnemius",0.71 log2
same,"Mlec mRNA Change (mean log2, ursolic acid diet minus control diet)","[2]; mice, gastrocnemius",−0.19 log2
same,"Mrpl46 mRNA Change (mean log2, ursolic acid diet minus control diet)","[2]; mice, gastrocnemius",0.15 log2
same,"Musk mRNA Change (mean log2, ursolic acid diet minus control diet)","[2]; mice, gastrocnemius",0.31 log2
same,"Nampt mRNA Change (mean log2, ursolic acid diet minus control diet)","[2]; mice, gastrocnemius",0.41 log2
same,"Ndufaf4 mRNA Change (mean log2, ursolic acid diet minus control diet)","[2]; mice, gastrocnemius",0.14 log2
same,"Ndufs2 mRNA Change (mean log2, ursolic acid diet minus control diet)","[2]; mice, gastrocnemius",0.14 log2
same,"Ndufs4 mRNA Change (mean log2, ursolic acid diet minus control diet)","[2]; mice, gastrocnemius",0.14 log2
same,"Nnt mRNA Change (mean log2, ursolic acid diet minus control diet)","[2]; mice, gastrocnemius",−0.24 log2
same,"Npc1 mRNA Change (mean log2, ursolic acid diet minus control diet)","[2]; mice, gastrocnemius",0.22 log2
same,"Nrap mRNA Change (mean log2, ursolic acid diet minus control diet)","[2]; mice, gastrocnemius",−0.14 log2
same,"Ostn mRNA Change (mean log2, ursolic acid diet minus control diet)","[2]; mice, gastrocnemius",0.43 log2
same,"Paip2b mRNA Change (mean log2, ursolic acid diet minus control diet)","[2]; mice, gastrocnemius",−0.16 log2
same,"Parp3 mRNA Change (mean log2, ursolic acid diet minus control diet)","[2]; mice, gastrocnemius",0.32 log2
same,"Pde4dip mRNA Change (mean log2, ursolic acid diet minus control diet)","[2]; mice, gastrocnemius",−0.18 log2
same,"Pdha1 mRNA Change (mean log2, ursolic acid diet minus control diet)","[2]; mice, gastrocnemius",0.18 log2
same,"Pnn mRNA Change (mean log2, ursolic acid diet minus control diet)","[2]; mice, gastrocnemius",−0.18 log2
same,"Prdx5 mRNA Change (mean log2, ursolic acid diet minus control diet)","[2]; mice, gastrocnemius",0.10 log2
same,"Psma2 mRNA Change (mean log2, ursolic acid diet minus control diet)","[2]; mice, gastrocnemius",0.15 log2
same,"Sepp1 mRNA Change (mean log2, ursolic acid diet minus control diet)","[2]; mice, gastrocnemius",0.35 log2
same,"Sepx1 mRNA Change (mean log2, ursolic acid diet minus control diet)","[2]; mice, gastrocnemius",0.28 log2
same,"Sfpq mRNA Change (mean log2, ursolic acid diet minus control diet)","[2]; mice, gastrocnemius",−0.18 log2
same,"Sfrs5 mRNA Change (mean log2, ursolic acid diet minus control diet)","[2]; mice, gastrocnemius",−0.22 log2
same,"Smox mRNA Change (mean log2, ursolic acid diet minus control diet)","[2]; mice, gastrocnemius",0.81 log2
same,"Sod2 mRNA Change (mean log2, ursolic acid diet minus control diet)","[2]; mice, gastrocnemius",0.12 log2
same,"Sqstm1 mRNA Change (mean log2, ursolic acid diet minus control diet)","[2]; mice, gastrocnemius",0.12 log2
same,"Ssr4 mRNA Change (mean log2, ursolic acid diet minus control diet)","[2]; mice, gastrocnemius",0.14 log2
same,"Trappc2l mRNA Change (mean log2, ursolic acid diet minus control diet)","[2]; mice, gastrocnemius",0.16 log2
same,"Trip10 mRNA Change (mean log2, ursolic acid diet minus control diet)","[2]; mice, gastrocnemius",0.23 log2
same,"Tyrobp mRNA Change (mean log2, ursolic acid diet minus control diet)","[2]; mice, gastrocnemius",0.69 log2
same,"Ube2l3 mRNA Change (mean log2, ursolic acid diet minus control diet)","[2]; mice, gastrocnemius",0.16 log2
same,"Vps29 mRNA Change (mean log2, ursolic acid diet minus control diet)","[2]; mice, gastrocnemius",0.20 log2
same,weight gain,C57BL/6 mice [3],dramatically reduced weight gain
same,impaired fasting glucose (pre-diabetes) or diabetes,"C57BL/6 mice [3]; 5 weeks, 16 h fast",prevented
same,brown fat in scapular fat pad,C57BL/6 mice [3]; 7 weeks,increased brown fat
same,energy expenditure (CLAMS),C57BL/6 mice [3]; 7 weeks,increased energy expenditure
same,grip strength,C57BL/6 mice [3]; 7 weeks,increased grip strength
same,"hepatic changes of fatty liver disease (liver weight, hepatocellular lipid accumulation, plasma AST, ALT, alkaline phosphatase)",C57BL/6 mice [3]; 7 weeks,prevented all of these hepatic changes
same,muscle mass,C57BL/6 mice [3]; 7 weeks,increased
same,obesity-related hypercholesterolemia (plasma cholesterol),C57BL/6 mice [3]; 7 weeks,reduced obesity-related hypercholesterolemia
same,retroperitoneal and epididymal fat,C57BL/6 mice [3]; 7 weeks,reduced retroperitoneal and epididymal fat
same,white fat in scapular fat pad,C57BL/6 mice [3]; 7 weeks,reduced white fat
